Series [1] in a line: DRUGMATRIX: ATPase, Na+/K+ enzyme inhibition (substrate: ATP). The class given is tissue-based, Sus scrofa, Heart. The note with it: Not Active = under 50% inhibition at 10 µM.
The target of series [2] is Tyrosine-protein kinase Lck (Homo sapiens, UniProt P06239). Put plainly: DRUGMATRIX: Protein Tyrosine Kinase, LCK enzyme inhibition (substrate: Poly(Glu:Tyr)). The class given is cell-based, Insect cells. The note with it: insect cells; Not Active = under 50% inhibition at 10 µM.
Tyrosine-protein kinase Lck, sequence (P06239 whole entry): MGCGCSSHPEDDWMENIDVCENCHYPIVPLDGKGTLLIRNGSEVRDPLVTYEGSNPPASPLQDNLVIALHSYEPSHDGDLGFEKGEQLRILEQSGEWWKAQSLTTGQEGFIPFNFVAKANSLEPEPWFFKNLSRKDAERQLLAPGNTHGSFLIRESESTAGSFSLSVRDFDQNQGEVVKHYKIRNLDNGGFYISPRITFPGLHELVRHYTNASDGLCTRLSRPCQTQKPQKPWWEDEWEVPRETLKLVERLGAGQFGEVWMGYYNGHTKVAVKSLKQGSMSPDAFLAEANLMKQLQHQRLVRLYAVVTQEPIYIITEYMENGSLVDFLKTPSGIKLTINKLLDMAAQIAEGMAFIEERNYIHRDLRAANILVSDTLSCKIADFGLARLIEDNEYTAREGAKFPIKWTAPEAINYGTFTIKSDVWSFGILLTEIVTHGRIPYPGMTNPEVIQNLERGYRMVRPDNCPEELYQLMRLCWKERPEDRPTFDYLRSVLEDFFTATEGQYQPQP
Series [3] deals with cGMP-specific 3',5'-cyclic phosphodiesterase (Homo sapiens, UniProt O76074). Put plainly: DRUGMATRIX: Phosphodiesterase PDE5 enzyme inhibition (substrate: [3H]cGMP + cGMP). The note with it: platelet; Not Active = under 50% inhibition at 10 µM. The series is classed as tissue-based.
Series [4] deals with Prostaglandin G/H synthase 1 (Homo sapiens, UniProt P23219). Nature of the series: biochemical. The series is classed as tissue-based, Platelet. The note with it: platelet.
Prostaglandin G/H synthase 1, sequence (P23219 whole entry): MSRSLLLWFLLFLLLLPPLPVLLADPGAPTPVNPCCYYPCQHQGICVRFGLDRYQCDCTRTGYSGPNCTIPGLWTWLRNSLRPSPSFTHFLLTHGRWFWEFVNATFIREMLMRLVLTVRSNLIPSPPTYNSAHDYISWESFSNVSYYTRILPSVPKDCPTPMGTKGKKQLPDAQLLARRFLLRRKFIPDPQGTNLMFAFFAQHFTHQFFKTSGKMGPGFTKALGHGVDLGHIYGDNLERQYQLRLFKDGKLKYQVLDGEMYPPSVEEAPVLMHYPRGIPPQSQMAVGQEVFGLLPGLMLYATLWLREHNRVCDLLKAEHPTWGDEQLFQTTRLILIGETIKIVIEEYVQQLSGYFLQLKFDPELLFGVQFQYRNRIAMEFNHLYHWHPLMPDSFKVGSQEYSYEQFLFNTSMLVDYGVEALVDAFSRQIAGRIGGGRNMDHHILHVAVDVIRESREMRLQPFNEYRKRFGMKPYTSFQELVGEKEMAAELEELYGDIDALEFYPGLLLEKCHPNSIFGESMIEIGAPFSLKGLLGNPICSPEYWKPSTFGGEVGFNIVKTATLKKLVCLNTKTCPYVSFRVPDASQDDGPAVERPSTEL
Series [5] can be described thus: DRUGMATRIX: Purinergic P2X radioligand binding (ligand: [3H] alpha, beta-Methylene-ATP). The class given is cell membranes, Oryctolagus cuniculus, New Zealand albino, Urinary bladder, Membrane. The note with it: Not Active = under 50% inhibition at 10 µM.
For another series, the target named is T1, Adenosine receptor A3 (Homo sapiens, UniProt P0DMS8).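 Also: radioligand binding assay with AB-MECA serving as the labeled ligand; in other assays of this panel Not Active means under 50% inhibition at 10 µM.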
T1 sequence (P0DMS8 whole entry): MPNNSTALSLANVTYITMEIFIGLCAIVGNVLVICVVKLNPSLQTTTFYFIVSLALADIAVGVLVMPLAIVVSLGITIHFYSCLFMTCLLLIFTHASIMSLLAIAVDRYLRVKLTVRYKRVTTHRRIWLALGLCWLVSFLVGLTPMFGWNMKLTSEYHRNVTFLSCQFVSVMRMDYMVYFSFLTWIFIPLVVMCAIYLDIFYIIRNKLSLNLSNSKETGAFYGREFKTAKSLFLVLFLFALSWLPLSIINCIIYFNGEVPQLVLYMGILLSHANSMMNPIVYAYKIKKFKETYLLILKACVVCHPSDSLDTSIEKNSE
The class given is cell membranes, CHO-K1, Membrane.

Series [6] can be described thus: DRUGMATRIX: Nicotinic Acetylcholine radioligand binding (ligand: [125I] Epibatidine). The class given is cell membranes, Membrane. The note with it: imr-32; Not Active = under 50% inhibition at 10 µM.
Series [7] deals with Beta-3 adrenergic receptor (Homo sapiens, UniProt P13945). Nature of the series: DRUGMATRIX: Adrenergic beta3 radioligand binding (ligand: [125I] Cyanopindolol). The series is classed as cell membranes, Membrane. The note with it: hek293; Not Active = under 50% inhibition at 10 µM.
Beta-3 adrenergic receptor, sequence (P13945 whole entry): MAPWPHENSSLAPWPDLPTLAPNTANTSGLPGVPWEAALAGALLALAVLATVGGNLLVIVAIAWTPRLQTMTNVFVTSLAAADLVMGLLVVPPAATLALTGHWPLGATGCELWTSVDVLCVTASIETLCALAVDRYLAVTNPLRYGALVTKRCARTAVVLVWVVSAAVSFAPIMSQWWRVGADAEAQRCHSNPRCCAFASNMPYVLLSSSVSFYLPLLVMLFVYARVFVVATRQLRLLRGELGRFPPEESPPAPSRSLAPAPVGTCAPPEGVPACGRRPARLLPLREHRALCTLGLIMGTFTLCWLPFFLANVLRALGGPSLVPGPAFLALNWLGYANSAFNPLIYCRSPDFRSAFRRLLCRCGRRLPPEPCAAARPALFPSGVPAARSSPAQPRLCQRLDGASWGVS
Another series has as its target Cytochrome P450 2E1 (Homo sapiens, UniProt P05181). The note with it: bti-tn-5b1-4. Also: in other assays of this panel Not Active means under 50% inhibition at 10 µM.
Series [8] concerns the target Beta-1 adrenergic receptor (Homo sapiens, UniProt P08588). Put plainly: DRUGMATRIX: Adrenergic beta1 radioligand binding (ligand: [125I] Cyanopindolol). The series is classed as cell membranes, CHO-K1, Membrane. The note with it: Not Active = under 50% inhibition at 10 µM.
A further series concerns the target Insulin receptor (Rattus norvegicus, UniProt P15127). The series is classed as cell membranes, Wistar, Liver, Membrane. Also: in other assays of this panel Not Active means under 50% inhibition at 10 µM.

Insulin receptor, sequence (P15127 27-759 limits assumed): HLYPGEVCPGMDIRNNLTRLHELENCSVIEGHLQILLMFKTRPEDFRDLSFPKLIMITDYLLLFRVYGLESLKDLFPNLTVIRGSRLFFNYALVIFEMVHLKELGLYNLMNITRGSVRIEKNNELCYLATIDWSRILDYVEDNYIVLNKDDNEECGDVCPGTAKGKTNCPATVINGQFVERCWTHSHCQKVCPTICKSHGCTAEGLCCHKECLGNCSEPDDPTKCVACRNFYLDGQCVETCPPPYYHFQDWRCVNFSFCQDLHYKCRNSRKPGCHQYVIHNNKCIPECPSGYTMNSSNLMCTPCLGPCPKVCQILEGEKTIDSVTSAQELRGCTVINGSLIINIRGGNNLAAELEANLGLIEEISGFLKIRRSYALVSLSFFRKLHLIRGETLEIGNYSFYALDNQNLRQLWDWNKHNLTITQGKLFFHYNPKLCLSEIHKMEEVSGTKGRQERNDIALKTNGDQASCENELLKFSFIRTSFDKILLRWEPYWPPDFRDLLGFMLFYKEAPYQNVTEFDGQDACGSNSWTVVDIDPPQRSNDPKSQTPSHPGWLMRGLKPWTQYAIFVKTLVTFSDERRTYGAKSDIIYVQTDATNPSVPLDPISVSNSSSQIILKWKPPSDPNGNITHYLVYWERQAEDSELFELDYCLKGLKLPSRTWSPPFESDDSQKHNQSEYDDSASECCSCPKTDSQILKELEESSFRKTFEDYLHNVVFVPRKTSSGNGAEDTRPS
Insulin receptor, sequence (P15127 764-1383 limits assumed): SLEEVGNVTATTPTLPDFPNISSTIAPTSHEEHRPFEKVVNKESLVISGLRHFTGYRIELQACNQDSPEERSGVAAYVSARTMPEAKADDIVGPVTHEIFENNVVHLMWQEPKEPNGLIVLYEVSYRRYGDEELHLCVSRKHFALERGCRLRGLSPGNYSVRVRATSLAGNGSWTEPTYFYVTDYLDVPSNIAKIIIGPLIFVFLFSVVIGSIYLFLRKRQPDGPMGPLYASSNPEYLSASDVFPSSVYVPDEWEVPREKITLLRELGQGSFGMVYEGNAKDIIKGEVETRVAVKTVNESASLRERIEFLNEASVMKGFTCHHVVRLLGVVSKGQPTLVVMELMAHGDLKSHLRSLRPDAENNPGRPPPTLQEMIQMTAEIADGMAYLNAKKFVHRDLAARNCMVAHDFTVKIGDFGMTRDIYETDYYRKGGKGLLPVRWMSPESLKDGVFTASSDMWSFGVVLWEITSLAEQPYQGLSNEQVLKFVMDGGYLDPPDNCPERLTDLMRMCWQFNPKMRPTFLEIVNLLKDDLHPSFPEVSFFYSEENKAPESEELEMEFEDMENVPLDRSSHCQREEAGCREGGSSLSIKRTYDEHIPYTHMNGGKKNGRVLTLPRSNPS
Cytochrome P450 2E1, sequence (P05181 whole entry): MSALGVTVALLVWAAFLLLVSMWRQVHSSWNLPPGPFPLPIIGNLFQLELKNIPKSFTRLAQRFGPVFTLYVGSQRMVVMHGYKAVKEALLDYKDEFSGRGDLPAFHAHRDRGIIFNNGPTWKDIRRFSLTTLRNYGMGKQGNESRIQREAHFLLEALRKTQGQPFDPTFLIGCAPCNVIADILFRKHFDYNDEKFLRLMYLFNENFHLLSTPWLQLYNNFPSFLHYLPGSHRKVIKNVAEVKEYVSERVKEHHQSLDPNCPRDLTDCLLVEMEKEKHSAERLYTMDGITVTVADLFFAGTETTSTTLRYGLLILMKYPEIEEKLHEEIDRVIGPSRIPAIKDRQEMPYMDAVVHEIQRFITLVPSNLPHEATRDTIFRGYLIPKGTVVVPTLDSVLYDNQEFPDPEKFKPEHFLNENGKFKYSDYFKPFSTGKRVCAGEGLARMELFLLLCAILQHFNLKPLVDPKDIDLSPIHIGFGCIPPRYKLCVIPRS
Beta-1 adrenergic receptor, sequence (P08588 whole entry): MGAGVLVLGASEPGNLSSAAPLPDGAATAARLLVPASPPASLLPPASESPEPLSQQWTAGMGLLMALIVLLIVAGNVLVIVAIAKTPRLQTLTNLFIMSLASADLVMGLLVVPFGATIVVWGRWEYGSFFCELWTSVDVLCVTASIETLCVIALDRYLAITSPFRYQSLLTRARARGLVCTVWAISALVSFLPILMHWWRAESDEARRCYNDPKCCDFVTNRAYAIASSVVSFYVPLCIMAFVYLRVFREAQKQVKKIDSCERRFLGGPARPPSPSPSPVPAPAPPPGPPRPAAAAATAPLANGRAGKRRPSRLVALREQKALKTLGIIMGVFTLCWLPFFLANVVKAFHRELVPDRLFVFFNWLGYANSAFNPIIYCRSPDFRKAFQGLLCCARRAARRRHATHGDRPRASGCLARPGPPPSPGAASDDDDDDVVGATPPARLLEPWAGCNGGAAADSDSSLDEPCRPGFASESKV

Take `CC1=C(CC(=O)O)c2cc(F)ccc2/C1=C\c1ccc([S+](C)[O-])cc1` (stereo not given): the IC50 result (in [1]; in series [2]; in series [3]; in [4]; in series [5]; at Adenosine receptor A3 (cho-k1)) was “Not Active” in each case. Besides, the IC50 entry (in [6]; in series [7]; against Cytochrome P450 2E1; in series [8] (cho-k1); at Insulin receptor) was “Not Active” in each case. The Ki result (in series [1]; in [5]; in series [6]; at Cytochrome P450 2E1) was “Not Active” in each case.

With `N[C@H](CSC(=S)NCc1ccccc1)C(=O)O`, the IC50 result (in series [1]; in [2]; in series [3]; in series [4]; in series [5]; on Adenosine receptor A3 (cho-k1)) was “Not Active” throughout. Further, the IC50 entry (in series [6]; in series [7]; against Cytochrome P450 2E1; in series [8] (cho-k1); against Insulin receptor) was “Not Active” throughout. The Ki result (in series [1]; in [5]; in series [6]; at Cytochrome P450 2E1) was “Not Active” in each case.

As for `CC(=O)N[C@@H]1[C@H](Oc2c3cc4cc2Oc2ccc(cc2Cl)[C@@H](O[C@@H]2O[C@@H](CO)[C@@H](O)[C@H](O)[C@@H]2NC(C)=O)[C@@H]2NC(=O)[C@H](NC(=O)[C@@H]4NC(=O)[C@H]4NC(=O)[C@@H](Cc5ccc(c(Cl)c5)O3)NC(=O)[C@H](N)c3ccc(O)c(c3)Oc3cc(O)cc4c3)c3ccc(O)c(c3)-c3c(O[C@H]4O[C@H](CO)[C@@H](O)[C@@H](O)[C@@H]4O)cc(O)cc3[C@@H](C(=O)O)NC2=O)O[C@@H](CO)[C@@H](O)[C@@H]1O`, the IC50 result (in series [1]; in series [2]; in series [3]; in series [4]; in [5]; on Adenosine receptor A3 (cho-k1)) was “Not Active” each time. Besides, the IC50 result (in series [6]; in series [7]; on Cytochrome P450 2E1; in series [8] (cho-k1); at Insulin receptor) was “Not Active” each time. Further, the Ki result (in series [1]; in series [5]; in [6]; at Cytochrome P450 2E1) was “Not Active” throughout.

Consider `Clc1ccc2c(c1)C(N1CCNCC1)=Nc1ccccc1O2` [AMOXAPINE], for which the IC50 result (in series [2]; in series [3]; in series [4]; at Adenosine receptor A3 (cho-k1); in series [7]; against Cytochrome P450 2E1) was “Not Active” in each case. Moreover, the IC50 result (in [8] (cho-k1); against Insulin receptor) was “Not Active” each time. In addition, the Ki result on Cytochrome P450 2E1 is “Not Active”.

As for `COc1cc2c(c(OC)c1OC)-c1ccc(OC)c(=O)cc1[C@@H](NC(C)=O)CC2` [COLCHICINE], the half-inhibitory concentration (IC50) result (in series [2]; in [3]; in [4]; at Adenosine receptor A3 (cho-k1); in series [7]; against Cytochrome P450 2E1) was “Not Active” throughout. Further, the IC50 entry (in series [8] (cho-k1); on Insulin receptor) was “Not Active” throughout. Further, the Ki entry at Cytochrome P450 2E1 is “Not Active”.

As to `CN1CCC(=C2c3ccccc3C=Cc3ccccc32)CC1` [CYPROHEPTADINE], the IC50 result (in series [2]; in series [3]; in series [4]; at Adenosine receptor A3 (cho-k1); in [7]; at Cytochrome P450 2E1) was “Not Active” in each case. In addition, the IC50 result (in [8] (cho-k1); against Insulin receptor) was “Not Active” in each case. The Ki result at Cytochrome P450 2E1 was “Not Active”.

Take `CC/C(=C(/CC)c1ccc(O)cc1)c1ccc(O)cc1` [DIETHYLSTILBESTROL]: the IC50 entry in series [2] was “Not Active”; in series [3] it was “Not Active”; in series [7] it was “Not Active”; on Cytochrome P450 2E1, “Not Active”; in series [8] (read-out: IC50) it was 22.1 µM; against Insulin receptor it was “Not Active”. Moreover, the Ki entry on Cytochrome P450 2E1 is “Not Active”; in [8] (read-out: Ki), 12.8 µM.

As for `CC(=O)N1CCN(c2ccc(OCC3COC(Cn4ccnc4)(c4ccc(Cl)cc4Cl)O3)cc2)CC1` (stereo not given) [KETOCONAZOLE], the IC50 entry (in series [1]; in [2]; in [3]; in series [4]; in series [5]; against Adenosine receptor A3 (cho-k1)) was “Not Active” in each case. For the same compound, the IC50 result (in series [6]; in [7]; on Cytochrome P450 2E1; in series [8] (cho-k1); against Insulin receptor) was “Not Active” throughout. For the same compound, the Ki entry (in series [1]; in [5]; in [6]; on Cytochrome P450 2E1) was “Not Active” in each case.

With `C=CCN1CC[C@]23c4c5ccc(O)c4O[C@H]2C(=O)CC[C@@]3(O)[C@H]1C5` [NALOXONE], the half-maximal inhibitory concentration (IC50) result (in series [2]; in series [3]; in series [4]; against Adenosine receptor A3 (cho-k1); in [7]; in [8] (cho-k1)) was “Not Active” throughout. Also, the IC50 entry at Insulin receptor is listed as “Not Active”.

Take `COCCOC(=O)C1=C(C)NC(C)=C(C(=O)OC(C)C)C1c1cccc([N+](=O)[O-])c1` (stereo not given) [NIMODIPINE]: the IC50 result (in series [1]; in series [2]; in series [3]; in [4]; in series [5]; on Adenosine receptor A3 (cho-k1)) was “Not Active” throughout. In addition, the IC50 entry (in series [6]; in series [7]; in series [8] (cho-k1); against Insulin receptor) was “Not Active” in each case. Besides, the Ki result in series [1], in series [5] and in series [6] was “Not Active” each time.

Turning to `CC(C)NCC(O)COc1cccc2ccccc12` (stereo not given) [PROPRANOLOL], the IC50 result (in series [2]; in [3]; in series [4]; against Adenosine receptor A3 (cho-k1); against Cytochrome P450 2E1; against Insulin receptor) was “Not Active” each time. Moreover, the Ki result at Cytochrome P450 2E1 is reported as “Not Active”.

For `COCCCOc1ccnc(C[S+]([O-])c2nc3ccccc3[nH]2)c1C` (stereo not given) [RABEPRAZOLE], the IC50 entry is “Not Active” in [1]; “Not Active” in series [2]; “Not Active” in series [3]; “Not Active” in series [4]; “Not Active” in series [5]; 3.22 µM at Adenosine receptor A3 (read-out: IC50). Further, the IC50 result (in series [6]; in series [7]; at Cytochrome P450 2E1; in series [8] (cho-k1); against Insulin receptor) was “Not Active” throughout. In addition, the Ki entry in series [1] was “Not Active”; in [5] it was “Not Active”; at Adenosine receptor A3 (read-out: Ki) it was 1820 nM; in series [6] it was “Not Active”; at Cytochrome P450 2E1, “Not Active”.

In the case of `CC(C)c1nc(CN(C)C(=O)N[C@H](C(=O)N[C@@H](Cc2ccccc2)C[C@H](O)[C@H](Cc2ccccc2)NC(=O)OCc2cncs2)C(C)C)cs1` [RITONAVIR], the IC50 entry (in series [1]; in [2]; in series [3]; in series [4]; in [5]; at Adenosine receptor A3 (cho-k1)) was “Not Active” throughout. Besides, the IC50 result (in [6]; in [7]; in [8] (cho-k1); against Insulin receptor) was “Not Active” in each case. The Ki result in [1], in [5] and in series [6] was “Not Active” each time.

As to `C[C@@H](N)[C@H]1CC[C@H](C(=O)Nc2ccncc2)CC1` [Y-27632], the IC50 result (in series [1]; in series [3]; in series [4]; in series [5]; on Adenosine receptor A3 (cho-k1); in [6]) was “Not Active” each time. Besides, the IC50 entry (in [7]; against Cytochrome P450 2E1; in [8] (cho-k1); at Insulin receptor) was “Not Active” in each case. Besides, the Ki result (in series [1]; in [5]; in series [6]; on Cytochrome P450 2E1) was “Not Active” in each case.

Source of the values: ChEMBL document CHEMBL1909046, “DrugMatrix in vitro pharmacology data”.
